Test results as given in patent US8288375B2, “Fungicidal bicyclic pyrazoles” (E.I. du Pont de Nemours and Company, priority 2007, dated 2012).

Columns and labels:
Format in all cases: in vivo
[1] = test system: Puccinia recondite f sp. tritici; assay: Test B: wheat leaf rust, test suspension sprayed on wheat seedlings, disease rating; details: 200 ppm test suspension;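 further: 200 ppm unless marked * meaning 40 ppm or ** meaning 10 ppm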
Septoria tritici = assay: Test E: wheat leaf blotch, test suspension sprayed on wheat seedlings, disease rating; details: 200 ppm test suspension;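 further: 200 ppm unless marked * meaning 40 ppm or ** meaning 10 ppm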
Alternaria solani = assay: Test G: tomato early blight, test suspension sprayed on seedlings, disease rating; details: 200 ppm test suspension;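 further: 200 ppm unless marked * meaning 40 ppm or ** meaning 10 ppm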
Septoria nodorum = assay: Test D: wheat glume blotch, test suspension sprayed on wheat seedlings, disease rating; details: 200 ppm test suspension
[2] = test system: Erysiphe graminis f. sp. tritici; assay: Test A: wheat powdery mildew, test suspension sprayed on wheat seedlings, disease rating; details: 200 ppm test suspension; 100 = 100% disease control, 0 = no control
Botrytis cinerea = assay: Test H: tomato Botrytis, test suspension sprayed on tomato seedlings, disease rating; details: 200 ppm test suspension
Fusarium graminearum = assay: whole plant or invertebrate; details: 200 ppm test suspension
Phytophthora infestans = assay: whole plant or invertebrate; details: 200 ppm test suspension
Pythium aphanidermatum = assay: Test L: bluegrass pythium blight, test suspension sprayed on bluegrass seedlings, disease rating; details: 200 ppm test suspension;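 further: 200 ppm unless marked * meaning 40 ppm or ** meaning 10 ppm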
Rhizoctonia oryzae = assay: Test I: turf brown patch, test suspension sprayed on creeping bent grass seedlings, disease rating; details: 200 ppm test suspension

SMILES | Test B disease control rating [1] [%] | Test E disease control rating (Septoria tritici) [%] | Test G disease control rating (Alternaria solani) [%] | Test D disease control rating (Septoria nodorum) [%] | Test A disease control rating [2] [%] | Test H disease control rating (Botrytis cinerea) [%] | Test C disease control rating (Fusarium graminearum) [%] | Test J disease control rating (Phytophthora infestans) [%] | Test L disease control rating (Pythium aphanidermatum) [%] | Test I disease control rating (Rhizoctonia oryzae) [%]
CCNc1nccc(-c2c(-c3cccc(C)c3)nn3c2CCCC3)n1 [compound 186] | 99 | 95 | 99 | 99 | 79 | 99 |  |  |  | 
Cc1cccc(-c2nn3c(c2-c2ccnc(NC4CC4)n2)CCCC3)c1 [compound 181] | 100 | 100 | 99 | 100 | 97 | 94 | 100 |  |  | 
COc1cc(Nc2nccc(-c3c(-c4ccccc4)nn4c3CCCC4)n2)ccc1F [compound 182] | 77 | 100 |  | 97 | 92 | 81 |  |  |  | 
c1cc(-c2c(-c3ccsc3)nn3c2CCCC3)nc(NC2CC2)n1 [compound 180] | 99 | 100 |  | 98 | 79 | 96 | 96 |  |  | 
CCNc1nccc(-c2c(-c3ccccc3)nn3c2COCC3)n1 [compound 183] | 100 | 100 |  | 97 |  | 81 | 99 |  |  | 
CNc1nccc(-c2c(-c3cccc(C)c3)nn3c2CCCC3)n1 [compound 187] | 99 | 99 |  | 92 | 79 | 92 |  |  |  | 
CNc1nccc(-c2c(-c3ccccc3)nn3c2CCCC3)n1 [compound 142] | 100 | 100 | 0 | 98 | 95 | 53 | 97 |  |  | 
CCCNc1nccc(-c2c(-c3cccc(C)c3)nn3c2CCCC3)n1 [compound 185] | 97 | 97 | 95 | 99 | 74 | 99 |  |  |  | 
CCCNc1nccc(-c2c(-c3ccccc3)nn3c2COCC3)n1 [compound 184] | 99 | 100 | 98 | 90 | 61 | 80 | 99 |  |  | 
c1cc(-c2c(-c3ccsc3)nn3c2CCCC3)nc(NC2CC2)n1 [compound 61] | 94 | 98 |  | 99 | 79 |  | 98 | 97 | 99 | 
CCNc1nccc(-c2c(-c3ccccc3)nn3c2CCCC3)n1 [compound 143] | 100 | 100 |  | 100 | 96 |  | 99 |  |  | 86
OCCCNc1nccc(-c2c(-c3ccc(F)cc3)nn3c2CCCC3)n1 [compound 37] | 86 | 68 |  | 0 | 70 |  | 96 | 95 | 93 | 
CC(CO)Nc1nccc(-c2c(-c3ccc(F)cc3F)nn3c2COCC3)n1 (centres unmarked) [compound 127] | 97 | 86 |  | 60 | 0 |  | 96 | 100 | 99 | 
CCCNc1nccc(-c2c(-c3ccccc3)nn3c2CCCC3)n1 [compound 179] | 100 | 100 |  | 99 | 75 |  | 100 |  |  | 89
CCC(CO)Nc1nccc(-c2c(-c3ccc(F)cc3)nn3c2CCCC3)n1 (centres unmarked) [compound 31] | 95 | 98 |  | 78 | 0 |  | 94 | 80 | 99 | 
Fc1ccccc1-c1nn2c(c1-c1ccnc(NC3CC3)n1)CCC2 [compound 99] | 94 | 98 |  | 89 | 0 |  | 99 | 99 | 100 | 
CC(CS(=O)(=O)[O-])Nc1nccc(-c2c(-c3ccc(F)cc3)nn3c2CCCC3)n1.[Na+] (centres unmarked) [compound 64] | 0 | 0 |  | 0 | 0 |  | 0 | 0 | 0 | 
Fc1ccc(-c2nn3c(c2-c2ccnc(Nc4ccc(OC(F)(F)F)cc4)n2)CCCC3)cc1 [compound 60] | 74 | 71 |  | 64 | 0 |  | 91 | 9 | 0 | 
CCN1CCCC1CNc1nccc(-c2c(-c3ccc(F)cc3)nn3c2CCCC3)n1 (centres unmarked) [compound 41] | 79 | 50 |  | 0 | 0 |  | 0 | 0 | 91 | 
Fc1ccc(-c2nn3c(c2-c2ccnc(NCc4cccs4)n2)CCCC3)cc1 [compound 39] | 67 | 88 |  | 60 | 0 |  | 60 | 0 | 0 | 
C[C@H](CO)Nc1nccc(-c2c(-c3ccc(F)cc3)nn3c2CCCC3)n1 [compound 47] | 91 | 94 |  | 0 | 0 |  | 69 | 99 | 100 | 
CC(C)Nc1nccc(-c2c(-c3ccccc3F)nn3c2CCCC3)n1 [compound 36] | 91 | 96 |  | 96 | 0 |  | 99 | 90 | 99 | 
